Test results published in patent EP0326331B1, “Substituted quinolines and cinnolines” (Dow AgroSciences LLC, priority 1988, dated 1989).
Read-outs that look alike come from different tables or passages of the source.

How the values were obtained:
[1] = system: CUCURBIT DOWNY MILDEW; test: Greenhouse combination test with known fungicide, foliar spray; details: 1-9 rating scale
Experimental: (§3) The test compounds were formulated for application by dissolving 50 mg of the compound into 1.25 ml of solvent. The solvent was prepared by mixing 50 ml of "Tween 20" with 475 ml of acetone and 475 ml of ethanol. The solvent/compound solution was diluted to 125 ml with deionized water. The resulting formulation contains 400 ppm test chemical. Lower concentrations were obtained by serial dilution with the solvent-surfactant mixture.
(§4) The formulated technical compounds were sprayed on all foliar surfaces of the host plants (or cut berry) to past run-off. Single pots of each host plant were placed on raised, revolving pedestals in a fume hood. Test solutions were sprayed on all foliar surfaces. All treatments were allowed to dry and the plants were inoculated with the appropriate pathogens within 2-4 hours.
(§5) In the tables, the time given under "Time in hours" is the number of hours elapsing between treatment and inoculation. […] In such cases, curative activity was being tested. […] In such cases, residual or protectant activity was tested. […] The results were evaluated on a 1-9 rating scale. These ratings represent the following percent disease control: 1 = 0-19%, 2 = 20-29%, 3 = 30-39%, 4 = 40-59%, 5 = 60-74%, 6 = 75-89%, 7 = 90-96%, 8 = 97-99%, and 9 = 100%.

[2] = system: CUCURBIT POWDERY MILDEW; test: as above; details: 1-9 rating scale, time 4 hours
Experimental: as §3, §4, §5

[3] = system: Twospotted spider mites (Tetranychus urticae Koch); test: Mite/insect screen, SM; assay type: in vivo; details: Tetranychus urticae, percent mortality, read-out: SM RESULTS %
Procedure, shortened: (§1)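 Activity is expressed as percent mortality at the indicated spray concentrations. Plants are sprayed to runoff on upper and lower leaf surfaces with aqueous dilutions of an acetone/alcohol emulsifiable formulation, then dried for one hour.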

[4] = system: melon aphids (Aphis gossypii Glover); test: Mite/insect screen, MA; assay type: in vivo; details: Aphis gossypii, percent mortality, read-out: MA RESULTS %
Procedure, shortened: as §1

[5] = system: Botrytis cinerea (gray mold); test: Test 1 greenhouse foliar spray screen, gray mold on grape berries; assay type: in vivo; details: for GRAY MOLD: disease control rating, spray on grape berries, 400 ppm (+++ at 100 ppm); for pest or weed control at 400 ppm: Botrytis cinerea, foliar, Test 1, spray on grape berries, disease control rating at 400 ppm / 100 ppm
[6] = system: Pseudoperonospora cubensis (downy mildew); test: Test 1 greenhouse foliar spray screen, downy mildew on squash; assay type: in vivo; details: for DOWN MDEW: disease control rating, foliar spray on squash, 400 ppm (+++ at 100 ppm); for activity against downy mildew: summary statement in the description; for pest or weed control at 400 ppm: Pseudoperonospora cubensis, foliar, Test 1, foliar spray on squash, disease control rating at 400 ppm / 100 ppm, read-out: DOWN MDEW
[7] = system: Puccinia recondita tritici (leaf rust); test: Test 1 greenhouse foliar spray screen, leaf rust on wheat; assay type: in vivo; details: for LEAF RUST: disease control rating, foliar spray on wheat, 400 ppm (+++ at 100 ppm); for pest or weed control at 400 ppm: Puccinia recondita, foliar, Test 1, foliar spray on wheat, disease control rating at 400 ppm / 100 ppm
[8] = system: Erysiphe graminis tritici (powdery mildew); test: Test 1 greenhouse foliar spray screen, powdery mildew on wheat; assay type: in vivo; details: for POWD MDEW: disease control rating, foliar spray on wheat, 400 ppm (+++ at 100 ppm); for pest or weed control at 400 ppm: Blumeria graminis, foliar, Test 1, foliar spray on wheat, disease control rating at 400 ppm / 100 ppm, read-out: POWD MDEW
[9] = system: southern armyworm (Spodopetra eridania Cramer); test: Mite/insect screen, SAW; assay type: in vivo; details: Spodoptera eridania, percent mortality, read-out: SAW RESULTS %
Procedure, shortened: as §1

[10] = system: Venturia inaequalis (apple scab); test: Test 1 greenhouse foliar spray screen, apple scab on apple seedling; assay type: in vivo; details: for APPL SCAB: disease control rating, foliar spray on apple seedling, 400 ppm (+++ at 100 ppm); for pest or weed control at 400 ppm: Venturia inaequalis, Test 1, foliar spray on apple seedling, disease control rating at 400 ppm / 100 ppm, read-out: APPL SCAB
[11] = system: Phytophthora infestans; assay type: in vivo; details: field test
[12] = system: Rhynchosporium secalis; test: Field tests against plant pathogens; assay type: in vivo; details: field test, crop barley
Text: (§2) Selected compounds were field tested against a variety of plant pathogens. […]

[13] = system: Sphaerotheca fuliginea; test: Field tests against plant pathogens; assay type: in vivo; details: field test, crop cucumber
Text: as §2

[14] = system: Plasmopara viticola; test: Field tests against plant pathogens; assay type: in vivo; details: field test, crop grape
Text: as §2

[15] = system: Pyrenophora teres; test: Field tests against plant pathogens; assay type: in vivo; details: field test, crop barley
Text: as §2

[16] = system: Alternaria brassica; test: Field tests against plant pathogens; assay type: in vivo; details: field test, crop rape
Text: as §2

[17] = system: Pyricularia oryzae (rice blast); test: whole plant or invertebrate; assay type: in vivo; details: for RICE BLAST: disease control rating, foliar spray on rice, 400 ppm (+++ at 100 ppm); for activity against rice blast: summary statement in the description; for pest or weed control at 400 ppm: Pyricularia oryzae, foliar, read-out: RICE BLAST, Test 1, foliar spray on rice, disease control rating at 400 ppm / 100 ppm
[18] = system: corn rootworm; test: Mite/insect screen, CRW; assay type: in vivo; details: percent mortality, read-out: CRW RESULTS %
Procedure, shortened: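 Each compound, taken up in an emulsifier-containing acetone/alcohol mixture and diluted in water to the stated concentrations, was assessed for percent kill following standard exposure times.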

[19] = system: Septoria tritici (leaf blotch); test: Test 1 greenhouse foliar spray screen, leaf blotch on wheat; assay type: in vivo; details: for LEAF BLOT: disease control rating, foliar spray on wheat, 400 ppm (+++ at 100 ppm); for pest or weed control at 400 ppm: Zymoseptoria tritici, Test 1, foliar spray on wheat, disease control rating at 400 ppm / 100 ppm, read-out: LEAF BLOT
[20] = system: Cercospora beticola (leaf spot); test: Test 1 greenhouse foliar spray screen, leaf spot on sugar beet; assay type: in vivo; details: for pest or weed control at 400 ppm: Cercospora beticola, Test 1, foliar spray on sugar beet, disease control rating at 400 ppm / 100 ppm
[21] = system: Puccinia recondita; test: Field tests against plant pathogens; assay type: in vivo; details: field test, crop wheat
Text: as §2

[22] = system: plant pathogens; test: Fungicidal efficacy against a broad spectrum of plant pathogens (summary of screen); assay type: in vivo; details: summary statement in the description
[23] = system: Piricularia oryzae; assay type: in vivo; details: field test, crop rice
[24] = system: Uncinula necator; test: Field tests against plant pathogens; assay type: in vivo; details: field test, crop grape
Text: as §2

[25] = system: Erysiphe graminis tritici; test: Field tests against plant pathogens; assay type: in vivo; details: field test, crop wheat
Text: as §2

[26] = system: Pseudocercosporella herpotrichoides; test: Field tests against plant pathogens; assay type: in vivo; details: field test, crop wheat
Text: as §2

[27] = system: Podosphaera leucotricha; test: Field tests against plant pathogens; assay type: in vivo; details: field test, crop apple
Text: as §2

[28] = foliar, rate 200 ppm, foliar spray on squash

SMILES | mortality at 200 ppm ([3]; SAW, SM & MA RATE 200 PPM) | mortality at 200 ppm ([4]; SAW, SM & MA RATE 200 PPM) | GRAY MOLD [5] | DOWN MDEW [6] | activity against downy mildew [6] | LEAF RUST [7] | POWD MDEW [8] | mortality at 200 ppm ([9]; SAW, SM & MA RATE 200 PPM) | APPL SCAB [10] | pathogens against which compounds of the invention showed activity [12] | pathogens against which compounds of the invention showed activity [13] | pathogens against which compounds of the invention showed activity [14] | pathogens against which compounds of the invention showed activity [15] | pathogens against which compounds of the invention showed activity [16] | RICE BLAST [17] | activity against rice blast [17] | mortality at 12 ppm ([18]; CRW RATE 12.00 PPM) | LEAF BLOT [19] | mortality at 200 ppm [3, 28] | mortality at 200 ppm [4, 28] | also measured
Fc1cccc2c(NCCc3ccccc3)ccnc12 [Example 5, 8-fluoro-N-(2-phenylethyl)-4-quinolinamine] | 0% | 0% | - (0-19% control at 400 ppm) | +++ (90-100% control at 100 ppm) | particularly excellent activity | +++ (90-100% control at 100 ppm) | ++ (90-100% control at 400 ppm) | 0% | - (0-19% control at 400 ppm) | Rhynchosporium secalis | Sphaerotheca fuliginea | Plasmopara viticola | Pyrenophora teres | Alternaria brassica | ++ (90-100% control at 400 ppm) | particularly excellent activity | 0% | +++ (90-100% control at 100 ppm) |  |  | RESULTS ([1]; Ex. 5 alone 6.00 ppm, time 4 hours): 1.0; RESULTS ([1]; Ex. 5 alone 12.00 ppm, time 4 hours): 7.0; RESULTS ([1]; Ex. 5 alone 24.00 ppm, time 4 hours): 7.5; RESULTS ([1]; Ex. 5 alone 48.00 ppm, time 4 hours (treatment before inoculation)): 8.0; RESULTS ([2]; Ex. 5 alone 6.00 ppm): 1.0; RESULTS ([2]; Ex. 5 alone 12.00 ppm): 1.0; RESULTS ([2]; Ex. 5 alone 24.00 ppm): 5.0; RESULTS ([2]; Ex. 5 alone 48.00 ppm): 6.0; pathogens against which compounds of the invention showed activity ([11]; crop potato): Phytophthora infestans; pathogens against which compounds of the invention showed activity ([11]; crop tomato): Phytophthora infestans
Fc1cccc2c(NCCc3ccc4ccccc4c3)ccnc12 [Example 159, 8-fluoro-N-[2-(2-naphthyl)ethyl]-4-quinolinamine] | 0% | 0% | - (0-19% control at 400 ppm) | +++ (90-100% control at 100 ppm) | particularly excellent activity | +++ (90-100% control at 100 ppm) | ++ (90-100% control at 400 ppm) | 0% | - (0-19% control at 400 ppm) | Rhynchosporium secalis |  | Plasmopara viticola |  |  | +++ (90-100% control at 100 ppm) |  | 0% | +++ (90-100% control at 100 ppm) |  |  | LEAF SPOT ([20]; disease control rating, foliar spray on sugar beet, 400 ppm (+++ at 100 ppm)): + (20-89% control at 400 ppm); pathogens against which compounds of the invention showed activity [21]: Puccinia recondita
Cc1ccc(CCOc2ccnc3c(F)cccc23)cc1 [Example 212, 8-fluoro-4-[2-(4-methylphenyl)ethoxy]quinoline] |  |  |  |  | particularly excellent activity |  |  |  |  | Rhynchosporium secalis | Sphaerotheca fuliginea | Plasmopara viticola | Pyrenophora teres | Alternaria brassica |  | particularly excellent activity |  |  | 0% | 0% | pest or weed control at 400 ppm [5]: 0 to 19%; pest or weed control at 400 ppm [6]: 90 to 100%; pest or weed control at 400 ppm [7]: 90 to 100%; pest or weed control at 400 ppm [8]: 90 to 100%; pest or weed control at 400 ppm [20]: 0 to 19%; mortality at 200 ppm [9, 28]: 0%; activity against a broad spectrum of plant pathogens [22]: particularly excellent activity; pest or weed control at 400 ppm [10]: 90 to 100%; pathogens against which compounds of the invention showed activity [23]: Piricularia oryzae; pathogens against which compounds of the invention showed activity [24]: Uncinula necator; pathogens against which compounds of the invention showed activity [25]: Erysiphe graminis tritici; pathogens against which compounds of the invention showed activity [26]: Pseudocercosporella herpotrichoides; pathogens against which compounds of the invention showed activity [27]: Podosphaera leucotricha; pest or weed control at 400 ppm [17]: 90 to 100%; mortality at 12 ppm ([18]; CRW rate 12.00 ppm): 0%; pest or weed control at 400 ppm [19]: 90 to 100%
Fc1cccc2c(OCCc3ccccc3)ccnc12 [Example 219, 8-fluoro-4-(2-phenylethoxy)quinoline] |  |  |  |  |  |  |  |  |  | Rhynchosporium secalis | Sphaerotheca fuliginea |  | Pyrenophora teres |  |  |  |  |  | 0% | 0% | pest or weed control at 400 ppm [5]: 0 to 19%; pest or weed control at 400 ppm [6]: 90 to 100%; pest or weed control at 400 ppm [7]: 90 to 100%; pest or weed control at 400 ppm [8]: 90 to 100%; pest or weed control at 400 ppm [20]: 20 to 89%; mortality at 200 ppm [9, 28]: 0%; activity against a broad spectrum of plant pathogens [22]: particularly excellent activity; pest or weed control at 400 ppm [10]: 20 to 89%; pathogens against which compounds of the invention showed activity [25]: Erysiphe graminis tritici; pathogens against which compounds of the invention showed activity [26]: Pseudocercosporella herpotrichoides; pest or weed control at 400 ppm [17]: 90 to 100%; mortality at 12 ppm ([18]; CRW rate 12.00 ppm): 0%; pest or weed control at 400 ppm [19]: 20 to 89%
